Laboratory results from paper PMC5863496, “Mesobuthus Venom-Derived Antimicrobial Peptides Possess Intrinsic Multifunctionality and Differential Potential as Drugs” (Frontiers in Microbiology, 2018).
Ends that are not written are not given here.

Assays:
[1] = tested on: Staphylococcus aureus J706; assay: Inhibition-zone assay (CL); assay type: cell-based; conditions: SA J706, N.A. = no activity at 0.8 nmol peptide each well
Outline: (§1)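 Bacteria (~2 × 10^6 cells/ml) were seeded in 0.8% soft-agar medium (LB, Nutrient Broth or GYM) and grown at 30 or 37°C. Three peptide doses were placed in separate 2 mm wells, and inhibition zones were measured after overnight incubation. CL was calculated from the slope and intercept of a d^2 versus log n plot.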

[2] = tested on: Escherichia coli DH5α; assay: Inhibition-zone assay (CL); assay type: cell-based; conditions: EC DH5α, N.A. = no activity at 0.8 nmol peptide each well
Outline: as §1

[3] = tested on: Escherichia coli D. J45b; assay: Inhibition-zone assay (CL); assay type: cell-based; conditions: EC D. J45b, N.A. = no activity at 0.8 nmol peptide each well
Outline: as §1

[4] = tested on: Escherichia coli JM109; assay: Inhibition-zone assay (CL); assay type: cell-based; conditions: EC JM109, N.A. = no activity at 0.8 nmol peptide each well
Outline: as §1

[5] = Serum stability; assay type: in vitro ADME; conditions: fresh mouse serum, 37°C, read-out inhibition zone on Micrococcus luteus plates, triplicate
Experimental: To assess serum stability, peptides were dissolved in H2O or fresh mouse serum for the indicated times at 37°C and their residual activity was measured by the inhibition-zone assay (Hultmark, [1998]).

[6] = tested on: Pseudomonas solanacearum
[7] = tested on: Pseudomonas aeruginosa 374; assay: Inhibition-zone assay (CL); assay type: cell-based; conditions: PA 374, N.A. = no activity at 0.8 nmol peptide each well
Outline: as §1

[8] = tested on: Pseudomonas aeruginosa 11082616; assay: Inhibition-zone assay (CL); assay type: cell-based; conditions: PA 11082616, N.A. = no activity at 0.8 nmol peptide each well
Outline: as §1

[9] = tested on: Pseudomonas aeruginosa 11082603; assay: Inhibition-zone assay (CL); assay type: cell-based; conditions: PA 11082603, N.A. = no activity at 0.8 nmol peptide each well
Outline: as §1

[10] = tested on: Pseudomonas aeruginosa FRD1; assay: Inhibition-zone assay (CL); assay type: cell-based; conditions: PA FRD1, N.A. = no activity at 0.8 nmol peptide each well
Outline: as §1

[11] = tested on: Pseudomonas aeruginosa O1; assay: Inhibition-zone assay (CL); assay type: cell-based; conditions: PA O1, N.A. = no activity at 0.8 nmol peptide each well
Outline: as §1

[12] = tested on: Pseudomonas aeruginosa 14; assay: Inhibition-zone assay (CL); assay type: cell-based; conditions: PA 14, N.A. = no activity at 0.8 nmol peptide each well
Outline: as §1

[13] = tested on: Serratia marcescens ATCC 14041; assay: Inhibition-zone assay (CL); assay type: cell-based; conditions: SMAR ATCC 14041, N.A. = no activity at 0.8 nmol peptide each well
Outline: as §1

[14] = tested on: Candida albicans JX1017; assay: Inhibition-zone assay (CL); assay type: cell-based; conditions: CA JX1017, 28°C, N.A. = no activity at 0.8 nmol peptide each well
[15] = tested on: Candida albicans SZ56; assay: Inhibition-zone assay (CL); assay type: cell-based; conditions: CA SZ56, 28°C, N.A. = no activity at 0.8 nmol peptide each well
[16] = tested on: Candida albicans 4247; assay: Inhibition-zone assay (CL); assay type: cell-based; conditions: CA 4247, 28°C, N.A. = no activity at 0.8 nmol peptide each well
[17] = tested on: Aspergillus nidulans A28; assay: Inhibition-zone assay (CL); assay type: cell-based; conditions: ANID A28, 28°C, N.A. = no activity at 0.8 nmol peptide each well
[18] = tested on: Pichia pastoris X33; assay: Inhibition-zone assay (CL); assay type: cell-based; conditions: PP X33, 28°C, N.A. = no activity at 0.8 nmol peptide each well
[19] = tested on: Candida albicans JX1195; assay: Inhibition-zone assay (CL); assay type: cell-based; conditions: CA JX1195, 28°C, N.A. = no activity at 0.8 nmol peptide each well
[20] = tested on: Aspergillus nidulans Rcho15; assay: Inhibition-zone assay (CL); assay type: cell-based; conditions: ANID Rcho15, 28°C, N.A. = no activity at 0.8 nmol peptide each well
[21] = tested on: fresh erythrocytes from the pigeons; assay: Hemolytic assay, bird (pigeon) erythrocytes; assay type: cell-based, Columba livia domestica; conditions: peptide 25 μM; bird blood cells; 30 min, 37°C
Experimental: Hemolytic activity of peptides against fresh erythrocytes from the ICR mice (Mus musculus), the lizards (Eremias multiocellata) or the pigeons (Columba livia domestica) was assayed according to the standard method (Zhu et al., [2012a]). An aliquot of freshly prepared venom was diluted with 0.9% NaCl to a protein concentration of ~5 mg/mL for use. The percentage of hemolysis is determined as (Apep-Ablank)/(Atot-Ablank) × 100, in which “A” represents absorbance measured at 570 nm. Ablank and Aprep were evaluated in the absence or presence of the venom or peptides. 100% hemolysis (Atot) was obtained in the presence of 1% Triton X-100.

Compound | Lethal concentration (CL) [1] [µM] | Lethal concentration (CL) [3] [µM] | Lethal concentration (CL) [8] [µM] | Lethal concentration (CL) [9] [µM] | Lethal concentration (CL) [11] [µM] | Lethal concentration (CL) [12] [µM] | Lethal concentration (CL) [14] [µM] | Lethal concentration (CL) [15] [µM] | Lethal concentration (CL) [16] [µM] | other results
CC[C@H](C)[C@H](NC(=O)CN)C(=O)NCC(=O)N[C@@H](C)C(=O)N[C@H](C(=O)N[C@@H](CC(C)C)C(=O)N[C@@H](CCCCN)C(=O)N[C@H](C(=O)N[C@@H](CC(C)C)C(=O)N[C@H](C(=O)N[C@H](C(=O)NCC(=O)N[C@@H](CC(C)C)C(=O)N1CCC[C@H]1C(=O)N[C@@H](C)C(=O)N[C@@H](CC(C)C)C(=O)N[C@H](C(=O)N[C@@H](CO)C(=O)N[C@@H](Cc1c[nH]c2ccccc12)C(=O)N[C@H](C(=O)N[C@@H](CCCCN)C(=O)N[C@@H](CCCNC(=N)N)C(=O)N[C@@H](CCCCN)C(=O)N[C@@H](CCCNC(=N)N)C(=O)N[C@@H](CCC(N)=O)C(=O)N[C@@H](CCC(N)=O)C(N)=O)[C@@H](C)CC)[C@@H](C)CC)[C@@H](C)O)[C@@H](C)O)C(C)C)C(C)C [Melittin, reference compound] | 16.41 | 24.54 |  |  |  |  |  |  |  | Lethal concentration (CL) [2]: 18.20 µM; Lethal concentration (CL) [4]: 23.53 µM; residual activity after incubation in mouse serum ([5]; 24 h, 0.72-1.44 nmol each well): only little or no activity remained
FFGHLFKLATKIIPSFFRRKNQ [MAC-22] |  | 6.78 | 19.08 | 14.35 | 12.03 | 6.78 |  |  |  | Lethal concentration (CL) [6]: 22.08 µM; Lethal concentration (CL) [7]: 18.75 µM; Lethal concentration (CL) [10]: 18.75 µM
FFGHLFKLATKIIPSLFQ [MUC-18, reference compound] | 4.86 | 22.72 | 31.40 |  | 41.58 | 31.40 |  |  |  | 
FFGHLFKLATKIIPSLFQRKKE [MUC-22] |  | 7.49 | 10.02 | 6.10 | 3.79 | 4.06 |  |  |  | Lethal concentration (CL) [6]: 21.61 µM; Lethal concentration (CL) [7]: 16.86 µM; Lethal concentration (CL) [13]: 58.93 µM; Lethal concentration (CL) [10]: 16.86 µM
FLFSLIPSAISGLINAFK-NH2 [MeuFSPL-2] | 7.04 |  |  |  |  |  | 11.10 | 14.80 | 7.02 | residual activity after incubation in mouse serum ([5]; 4 h, 0.72 nmol/well): entirely lost
FLFSLIPSAISGLISAFK-NH2 [MeuFSPL-1] | 10.92 |  |  |  |  |  | 11.72 | 21.82 | 15.28 | Lethal concentration (CL) [17]: 14.84 µM; Lethal concentration (CL) [18]: 8.21 µM
FLFSLIPSAISGLISAFKGRRKRDLN-NH2 [MarMEL] | 8.41 | 6.24 | 8.41 | 8.41 |  |  | 4.07 | 8.49 | 7.04 | Lethal concentration (CL) [19]: 5.65 µM; Lethal concentration (CL) [2]: 5.48 µM; Lethal concentration (CL) [20]: 5.65 µM; Lethal concentration (CL) [17]: 7.14 µM; Lethal concentration (CL) [18]: 3.57 µM; Lethal concentration (CL) [4]: 5.55 µM; hemolysis [21]: nearly complete hemolysis
